Assay results published in US11434250B2, “Pyrazolo[1,5a]pyrimidine derivatives as IRAK4 modulators” (Genentech, Inc., priority 2017, dated 2022).
Values after ≈ are worked out from the molar mass of the structure shown.

Key:
human IRAK4 = human IRAK4 (Homo sapiens (Human), UniProt Q9NWZ3); assay: IRAK4 enzymatic assay (Transcreener fluorescence polarization, ADP detection); assay type: biochemical; settings: recombinant full-length IRAK4; 125 uM ATP; 90 min
Description: Compounds were assayed for inhibition of human IRAK4 and IRAK1 catalytic activity using recombinant enzyme produced from insect cells. Full-length IRAK4 protein, carrying an N-terminal His6-Tag, was obtained from Life Technologies (Carlsbad, Calif., USA). The IRAK1 construct was produced internally and was comprised of IRAK1 residues Arg194 to Ser712, preceded by an NH2-terminal His6 tag and the coding sequence for glutathione-S-transferase.
Kinase activities were assayed using the Transcreener-Fluorecescence polarization platform (BelBrook Labs, Madison, Wis., USA) that measures amounts of the reaction product, ADP. […] Final IRAK4 assay conditions were 1.25 nM IRAK4; 125 uM ATP; 10 uM MgC2; 125 uM peptide in reaction buffer (25 mM HEPES (pH7.4); 2 mM Dithiothreitol; 0.015% Brij-35; and 0.5% dimethyl sulfoxide. The IRAK1 activity was optimized similarly, yielding final assay conditions of […] IRAK1; 62.5 uM ATP; 5 uM MgCl2, and 62.5 uM IRAK1 peptide in reaction buffer for 60 min.
Assays of compounds for kinase inhibition were performed using inhibitors serially-diluted in dimethyl sulfoxide, which was accomplished with a LabCyte Echo 555 liquid dispenser. 384 well assay plates spotted with compound received 4 ul of a 2× substrate (ATP+peptide) mix in reaction buffer, followed by 4 ul of 2× enzyme diluted in reaction buffer. Reactions were halted at 60 (IRAK1) or 90 (IRAK4) min by addition of 6 ul of detection buffer, containing EDTA ([…] final concentration), 0.95 ug of the ADP-binding antibody ADP2, ADP tracer (3 nM final concentration), and […] HEPES. Following a 1 hr incubation, fluorescence polarization of the ADP2-antibody::TRACER complex was read on a Tecan M1000 plate reader using a 635/20 excitation filter in combination with a 670/20 emission filter. Delta milli-P values were analyzed using Genedata software to fit dose-response curves and compute compound Ki values, using ATP Km values of 642 um and 83.2 uM for IRAK4 and IRAK1, respectively. Table 3 provides IRAK4 Ki values for representative compounds of the present invention.

Kinetic solubility assay = assay type: physicochemical; settings: for solubility kinetic at 24 h: PBS buffer with 2% DMSO, aqueous buffer, kinetic from dmso stock, PBS buffer pH 7.4, 2% DMSO, 24 hours shaking at room temperature, UHPLC-CLND; for Fold improvement in kinetic solubility: example compound versus its matched pair phenyl compound
Description: The kinetic solubility assay started with compound DMSO stock solutions. This assay used Millipore Multiscreen 96-well filter plates for the 24 hour equilibration shaking. Samples were prepared by adding 4 μL of the 10 mM compound DMSO stock solutions into 196 μL of PBS buffer pH 7.4 in the 96-well filter plates, yielding a compound concentration of 200 μM and 2% DMSO. The filter plate was sealed with aluminum sealing film and shaken at room temperature for 24 hours at 1000 rpm. When shaking has completed, the solutions were filtered into a clean 96-well plate utilizing a vacuum manifold. After filtration, some precipitate is often observed at the bottom of the filtration plate wells. Most of the precipitates appear to be crystalline under a polarizing light microscope. The filtrate samples were diluted by a factor of 2 using PBS pH7.4 buffer and then transferred to a 384-well plate for analysis by UHPLC-CLND (CLND: Chemiluminescence nitrogen detector). 5 μL of each sample was injected twice into the UHPLC-CLND for two repeat analysis.
Samples were detected and analyzed using UV 254 nm and CLND. UV 254 nm is used primarily to confirm the sample purity but in rare cases, is also used to quantify the concentration of compounds with no nitrogens, where additional work is done to create a compound specific calibration curve. The identification of CLND target peaks of each compound were confirmed by LCMS. Sample quantification was accomplished by CLND peak intensity, the calibration curve, and the number of nitrogen contained in the compound. One calibration curve of caffeine was used for solubility quantitative determination. A fresh calibration curve was created for every batch. The number of nitrogens in a compound used for this quantification was corrected for the actual configuration of the nitrogen in the compound.

[1] = Plasma protein binding using rapid equilibrium dialysis (RED); assay type: in vitro ADME; settings: pH 7.4, human plasma, 37° C., read-out: Human PPB (converted)
Description: Plasma protein binding was measured in duplicate using rapid equilibrium dialysis (RED) device ((Thermo Scientific Pierce) in a 96-well format. Briefly, 10.0 μL drug or control compounds (0.5 mM in DMSO) was mixed with 1000 μL plasma (pH adjusted to 7.4) from various species (BioreclamationIVT). Aliquots of 300 μL drug/plasma mixture were placed into the donor side chamber of a single-use RED plate, and 500 μL aliquots of PBS buffer were placed into the adjacent chamber as the receiver side. The plate was incubated on an orbital shaker at 400 rpm, at 37° C. for 4 hours. After completion of incubation, 50 μL aliquots from the PBS buffer side were mixed with 5 μL of blank plasma matrix, and 5 μL from the donor side (plasma) were mixed with 50 μL blank PBS buffer. All samples were then crashed with 200 μL acetonitrile (containing internal standard) to precipitate plasma proteins. The samples were centrifuged at 3750 rpm for 10 min to pellet the proteins. The supernatants were carefully transferred to a fresh 96-well plate, and diluted with an equivalent volume of water. The samples were then analyzed by LC-MS/MS (ABI 4000, ABI Sciex). Data acquisition and processing was performed with Analyst 1.6.1 and Multiquant 2.1. The percent of protein binding and fraction unbound (fu) in matrix was calculated from taking the ratio of responses (peak areas) on the receiver side (buffer) to those on the donor side (plasma). The ratios were normalized to the internal standard.

human IRAK4, sequence (Q9NWZ3 whole entry, the tested form may be a part): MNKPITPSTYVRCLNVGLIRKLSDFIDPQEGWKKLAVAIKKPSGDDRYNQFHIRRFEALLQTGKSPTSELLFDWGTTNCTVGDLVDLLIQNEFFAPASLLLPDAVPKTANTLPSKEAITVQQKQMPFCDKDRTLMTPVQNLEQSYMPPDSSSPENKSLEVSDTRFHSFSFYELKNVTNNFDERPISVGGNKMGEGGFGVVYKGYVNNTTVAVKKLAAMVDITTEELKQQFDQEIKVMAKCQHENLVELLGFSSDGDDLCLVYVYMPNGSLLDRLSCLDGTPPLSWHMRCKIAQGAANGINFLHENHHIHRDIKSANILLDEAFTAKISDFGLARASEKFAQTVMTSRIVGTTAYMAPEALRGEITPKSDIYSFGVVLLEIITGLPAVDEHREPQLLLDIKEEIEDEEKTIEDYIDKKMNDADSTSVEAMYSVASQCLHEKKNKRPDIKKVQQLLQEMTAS

Compound	Ki (human IRAK4)	solubility kinetic at 24 h (Kinetic solubility assay)	Fold improvement in kinetic solubility (Kinetic solubility assay)	fraction unbound at 4 h, 5 µM [1]
CC1(C)Cc2cc(NC(=O)c3cnn4cccnc34)c(N3CCC(F)(CO)CC3)nc2O1 [Example 5, N-[6-[4-Fluoro-4-(hydroxymethyl)-1-piperidyl]-2,2-dimethyl-3H-furo[2,3-b]pyridin-5-yl]pyrazolo[1,5-a]pyrimidine-3-carboxamide]	5.6 nM	112 µM (≈ 49.3 µg/mL)	43.1	
CC1(C)Cc2cc(NC(=O)c3cnn4cccnc34)c(N3CCN(CC(F)F)CC3)nc2O1 [Example 9, N-(6-(4-(2,2-Difluoroethyl)piperazin-1-yl)-2,2-dimethyl-2,3-dihydrofuro[2,3-b]pyridin-5-yl)pyrazolo[1,5-a]pyrimidine-3-carboxamide]	7.6 nM	137 µM (≈ 62.7 µg/mL)	137.0	0.123
C[C@@]1(CO)Cc2cc(NC(=O)c3cnn4cccnc34)c(N3CCN(CC(F)F)CC3)nc2O1 (stereo in doubt) [Example 20, N-[rac-(2S)-6-[4-(2,2-difluoroethyl)piperazin-l-yl]-2-(hydroxymethyl)-2-methyl-3H-furo[2,3-b]pyridin-5-yl]pyrazolo[1,5-a]pyrimidine-3-carboxamide]	9.1 nM			
C[C@]1(O)COc2nc(N3CCN(CC(F)F)CC3)c(NC(=O)c3cnn4cccnc34)cc2C1 (stereo in doubt) [Example 18, N-[rac-(3R)-7-[4-(2,2-difluoroethyl)piperazin-l-yl]-3-hydroxy-3-methyl-2,4-dihydropyrano[2,3-b]pyridin-6-yl]pyrazolo[1,5-a]pyrimidine-3-carboxamide]	210 nM	167 µM (≈ 79.1 µg/mL)	12.8	
C[C@@]1(O)COc2nc(N3CCN(CC(F)F)CC3)c(NC(=O)c3cnn4cccnc34)cc2C1 (stereo in doubt) [Example 19, N-[rac-(3S)-7-[4-(2,2-difluoroethyl)piperazin-l-yl]-3-hydroxy-3-methyl-2,4-dihydropyrano[2,3-b]pyridin-6-yl]pyrazolo[1,5-a[pyrimidine-3-carboxamide]	31 nM	177 µM (≈ 83.8 µg/mL)	31.6	
CC1(C)Cc2cc(NC(=O)c3cnn4cccnc34)c(N3CCOCC3)nc2O1 [Example 1, N-(2,2-dimethyl-6-morpholino-2,3-dihydrofuro[2,3-b]pyridin-5-yl)pyrazolo[1,5-a]pyrimidine-3-carboxamide]	39 nM	166 µM (≈ 65.5 µg/mL)	166.0	0.143
CC1(C)Cc2cc(NC(=O)c3cnn4cccnc34)c(N3CCN(CCO)CC3)nc2O1 [Example 4, N-(6-(4-(2-Hydroxyethyl)piperazin-1-yl)-2,2-dimethyl-2,3-dihydrofuro[2,3-b]pyridin-5-yl)pyrazolo[1,5-a]pyrimidine-3-carboxamide]	33 nM			
CC1(C)Cc2cc(NC(=O)c3cnn4cccnc34)c(N3CCC(CO)CC3)nc2O1 [Example 2, N-(6-(4-(Hydroxymethyl)piperidin-1-yl)-2,2-dimethyl-2,3-dihydrofuro[2,3-b]pyridin-5-yl)pyrazolo[1,5-a]pyrimidine-3-carboxamide]	4.2 nM			0.074
Cc1cnc2c(C(=O)Nc3cc4c(nc3N3CCC(CO)CC3)OC(C)(C)C4)cnn2c1 [Example 3, N-(6-(4-(Hydroxymethyl)piperidin-1-yl)-2,2-dimethyl-2,3-dihydrofuro[2,3-b]pyridin-5-yl)-6-methylpyrazolo[1,5-a]pyrimidine-3-carboxamide]	4.1 nM	7.5 µM (≈ 3.27 µg/mL)	7.5	

Results, then the compound that gave them:

Ki (human IRAK4)	solubility kinetic at 24 h (Kinetic solubility assay)	Fold improvement in kinetic solubility (Kinetic solubility assay)	fraction unbound at 4 h, 5 µM [1]	Compound
88 nM	159 µM (≈ 65.3 µg/mL)	15.9		CC1(CO)Cc2cc(NC(=O)c3cnn4cccnc34)c(N3CCOCC3)nc2O1 (stereo in doubt) [Example 10, (S)—N-(2-(Hydroxymethyl)-2-methyl-6-morpholino-2,3-dihydrofuro[2,3-b]pyridin-5-yl)pyrazolo[1,5-a]pyrimidine-3-carboxamide]
6.4 nM				CC1(C)Cc2cc(NC(=O)c3cnn4cccnc34)c(OCC3CC3)nc2O1 [Example 17, N-[6-(cyclopropylmethoxy)-2,2-dimethyl-3H-furo[2,3-b]pyridin-5-yl]pyrazolo[1,5-a]pyrimidine-3-carboxamide]
45 nM	137 µM (≈ 56.2 µg/mL)			C[C@@]1(CO)Cc2cc(NC(=O)c3cnn4cccnc34)c(N3CCOCC3)nc2O1 (single isomer, unassigned) [Example 11]
48 nM				CC(C)(O)[C@@]1(C)Cc2cc(NC(=O)c3cnn4cccnc34)c(N3CCOCC3)nc2O1 (single isomer, unassigned) [Example 14]
820 nM				CC1(C)Cc2cc(NC(=O)c3cnn4cccnc34)c(N3CCOC[C@@H]3CO)nc2O1 (single isomer, unassigned) [Example 8]
540 nM	39 µM (≈ 15.3 µg/mL)	5.7		CN1Cc2cc(NC(=O)c3cnn4cccnc34)c(N3CCOCC3)nc2C1=O [Example 12, N-(6-Methyl-2-morpholino-7-oxo-6,7-dihydro-5H-pyrrolo[3,4-b]pyridin-3-yl)pyrazolo[1,5-a]pyrimidine-3-carboxamide]
91 nM				CC(C)(O)[C@]1(C)Cc2cc(NC(=O)c3cnn4cccnc34)c(N3CCOCC3)nc2O1 (single isomer, unassigned) [Example 13]
6.6 nM				Cc1cnc2c(C(=O)Nc3cc4c(nc3N3CCN(CC(N)=O)CC3)O[C@](C)(CO)C4)cnn2c1 (single isomer, unassigned) [Example 15]
		13.7		CC1(CO)Cc2cc(NC(=O)c3cnn4cccnc34)c(N3CCOCC3)nc2O1 (stereo in doubt) [Example 11, (R)—N-(2-(hydroxymethyl)-2-methyl-6-morpholino-2,3-dihydrofuro[2,3-b]pyridin-5-yl)pyrazolo[1,5-a]pyrimidine-3-carboxamide]
2400 nM				CC1(C)Cc2cc(NC(=O)c3cnn4cccnc34)c(N3CCOC[C@H]3CO)nc2O1 (single isomer, unassigned) [Example 7]
5.5 nM				Cc1cnc2c(C(=O)Nc3cc4c(nc3N3CCN(CC(N)=O)CC3)O[C@@](C)(CO)C4)cnn2c1 (single isomer, unassigned) [Example 16]
